Several values for one entry are separate records, joined by “and”; a condition that tells them apart may be missing. Identical values can stand only once.
Experiments:
EcPDF = EcPDF (Escherichia coli, UniProt P0A6K3)
Procedure: (§1) Assay of PDF activity was coupled to formate dehydrogenase, where the absorbance of NADH at 340 nm was measured at 37°C as previously described. […] The kinetics parameters were derived from iterative non-linear least square calculations using the Michaelis-Menten equation based on the experimental data (Sigma-Plot; Kinetics module). […] The data were then calculated according to the method of Henderson, which can be used to determine the dissociation constant of the tight-binding competitive enzyme inhibitor [28],[49],[72] by varying both the inhibitor and substrate concentrations. To determine K I, k 5, and k 6, the reaction was initiated by the addition of enzyme as previously described,[49]. […] From the set of values obtained at various concentrations of I, k5 and k6 could be derived using kobs = k6 + k5[I]/(KI + [I]).

[1] = test system: AtPDF wild-type (WT) and G41M and G41Q; experiment: ΔΔGbinding calculated from Kd values; parameters: species or system Arabidopsis thaliana; conditions: calculated from the K d values for actinonin binding to WT and G41M and G41Q
Procedure: The percentage of the distance required to make a hydrogen bond (2.8 Å) is reported (dark squares). […] The values were calculated as follows. For the WT, it corresponds to the RT ln(KI*/KI) value, where R is the ideal gas constant and T is the temperature in Kelvin. RT is 0.616 kcal.mol^−1 at 37°C. For the G41M and G41Q variants, the ΔΔGbinding corresponds to RT ln(KI-G41variant/KD-WT). The obtained values are similar to that obtained if the kcat/Km substitutes the KD value in the calculation (ΔΔGbinding = RT ln(kcat/Km –G41variant/kcat/Km –WT). (EPS) Click here for additional data file.

AtPDF variant G41M [2] = biological target: T1, AtPDF variant G41M (Arabidopsis thaliana, UniProt Q9FUZ2, G121M); experiment: Differential scanning calorimetry (DSC), thermal stability; assay type: binding
T1 construct: Expression and purification of mature Arabidopsis thaliana PDF1B and all variants (i.e., AtPDF); made in house
T1 sequence (Q9FUZ2 57-273 G121M): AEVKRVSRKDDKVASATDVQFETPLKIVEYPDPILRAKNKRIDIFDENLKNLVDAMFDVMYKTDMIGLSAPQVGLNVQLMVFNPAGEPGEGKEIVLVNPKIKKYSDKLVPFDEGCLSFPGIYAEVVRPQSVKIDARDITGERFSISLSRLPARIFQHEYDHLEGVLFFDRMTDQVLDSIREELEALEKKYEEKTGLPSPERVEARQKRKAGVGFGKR
Procedure: (§2) ITC experiments were performed using a VP-ITC isothermal titration calorimeter (Microcal Corp.). Experiments were performed at 37°C. […] A theoretical titration curve was fitted to the experimental data using the ORIGIN software (Microcal). This software uses the relationship between the heat generated after each injection and ΔH° (enthalpy change in kcal/mol), K A (the association binding constant in M^−1), n (number of binding sites per monomer), total protein concentration, and free and total ligand concentrations. The thermal stability of the WT and variants of Ni-AtPDF1B was studied by DSC using VP-DSC calorimetry (Microcal Corp.). DSC measurements were made with 10 µM protein solutions in buffer C. […] The same buffer was used as a reference. All solutions were degassed just before loading into the calorimeter. Scanning was performed at 1°C/min. The temperature dependence of the partial molar capacity (Cp) was expressed in kcal/K after subtracting the buffer signal using Origin(R) software.

AtPDF [3] = biological target: T2, AtPDF (Arabidopsis thaliana, UniProt Q9FUZ2); experiment: PDF activity assay coupled to formate dehydrogenase (NADH absorbance at 340 nm)
Procedure: as §1
(§3) The enzyme concentration used in the assay was 100 nM.

AtPDF variant G41M [4] = biological target: T1, AtPDF variant G41M; assay type: biochemical; conditions: nm = not measurable
Procedure: as §1

AtPDF [5] = biological target: T2, AtPDF; experiment: Isothermal titration calorimetry (ITC); assay type: binding; parameters: Expression and purification of mature Arabidopsis thaliana PDF1B and all variants (i.e., AtPDF); made in house; conditions: WT; from ITC (value in parentheses); 37°C
Procedure: as §2
The volume of each reaction was 10 µl, and injections were made at 240 s intervals. Top, raw data from the titration. Each peak corresponds to the injection. Bottom, the peaks in the upper panel were integrated with ORIGIN software and the values were plotted versus injection number. Each point corresponds to the heat in µcal generated by the reaction upon each injection. […]

AtPDF variant I42W [6] = biological target: T3, AtPDF variant I42W (Arabidopsis thaliana, UniProt Q9FUZ2, I122W); experiment: Isothermal titration calorimetry (ITC); assay type: binding
T3 construct: Expression and purification of mature Arabidopsis thaliana PDF1B and all variants (i.e., AtPDF); made in house
Procedure: as §2
(§4) The volume of each reaction was 10 µl, and injections were made at 240 s intervals. Top, raw data from the titration. Each peak corresponds to the injection. Bottom, the peaks in the upper panel were integrated with ORIGIN software and the values were plotted versus injection number. Each point corresponds to the heat in µcal generated by the reaction upon each injection. The solid line is the curve fit to the data by the Origin program. This fit yields values for K d. Experiments were done with wild type protein and others variants, and gave similar raw data and curve fit. (A) WT; (B) variant G41M; (C) variant I42W. (EPS) Click here for additional data file.
Target sequence in this assay (Q9FUZ2 57-273 I122W): as the sequence (Q9FUZ2 57-273 G121M) above, with M65G, I66W counted along it

AtPDF variant G41M [7] = biological target: T1, AtPDF variant G41M; experiment: Isothermal titration calorimetry (ITC); assay type: binding
Procedure: as §2, §4

AtPDF variant I42F [8] = biological target: T4, AtPDF variant I42F (Arabidopsis thaliana, UniProt Q9FUZ2, I122F); experiment: Isothermal titration calorimetry (ITC); assay type: binding
T4 construct: Expression and purification of mature Arabidopsis thaliana PDF1B and all variants (i.e., AtPDF); made in house
T4 sequence (Q9FUZ2 57-273 I122F): as the sequence (Q9FUZ2 57-273 G121M) above, with M65G, I66F counted along it
Procedure: as §2, §4

AtPDF variant I42A = biological target: T5, AtPDF variant I42A (Arabidopsis thaliana, UniProt Q9FUZ2, I122A); experiment: biochemical
T5 construct: Expression and purification of mature Arabidopsis thaliana PDF1B and all variants (i.e., AtPDF); made in house
T5 sequence (Q9FUZ2 57-273 I122A): as the sequence (Q9FUZ2 57-273 G121M) above, with M65G, I66A counted along it
Procedure: as §1

AtPDF variant G41Q [9] = biological target: AtPDF variant G41Q (Arabidopsis thaliana, UniProt Q9FUZ2, G121Q); experiment: PDF activity assay coupled to formate dehydrogenase
Sequence of AtPDF variant G41Q (Arabidopsis thaliana, UniProt Q9FUZ2, G121Q) (Q9FUZ2 83-273 G121Q): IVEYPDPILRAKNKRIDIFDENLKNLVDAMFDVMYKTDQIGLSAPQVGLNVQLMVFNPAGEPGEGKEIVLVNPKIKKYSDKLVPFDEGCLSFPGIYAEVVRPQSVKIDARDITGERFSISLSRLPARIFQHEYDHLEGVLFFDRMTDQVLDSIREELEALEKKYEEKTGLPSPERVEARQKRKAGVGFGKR
Procedure: as §1

AtPDF [10] = biological target: T2, AtPDF; experiment: Differential scanning calorimetry (DSC), thermal stability; assay type: binding; parameters: Expression and purification of mature Arabidopsis thaliana PDF1B and all variants (i.e., AtPDF); made in house; conditions: 10 µM protein, 20 µM actinonin; free enzyme 61°C
Procedure: as §2

AtPDF variant I42N = biological target: T6, AtPDF variant I42N (Arabidopsis thaliana, UniProt Q9FUZ2, I122N); experiment: biochemical; conditions: for Ki: 100 nM enzyme
T6 construct: Expression and purification of mature Arabidopsis thaliana PDF1B and all variants (i.e., AtPDF); made in house
T6 sequence (Q9FUZ2 57-273 I122N): as the sequence (Q9FUZ2 57-273 G121M) above, with M65G, I66N counted along it
Procedure: as §1, §3

AtPDF variant I130A = biological target: T7, AtPDF variant I130A (Arabidopsis thaliana, UniProt Q9FUZ2, I210A); experiment: biochemical; conditions: for Ki: 100 nM enzyme
T7 construct: Expression and purification of mature Arabidopsis thaliana PDF1B and all variants (i.e., AtPDF); made in house
T7 sequence (Q9FUZ2 57-273 I210A): as the sequence (Q9FUZ2 57-273 G121M) above, with M65G, I154A counted along it
Procedure: as §1, §3

AtPDF variant I42W [11] = biological target: T3, AtPDF variant I42W; experiment: biochemical; conditions: for Ki: 100 nM enzyme
Procedure: as §1, §3
Target sequence in this assay (Q9FUZ2 83-273 I122W): as the sequence (Q9FUZ2 83-273 G121Q) above, with Q39G, I40W counted along it

AtPDF variant I42F [12] = biological target: T4, AtPDF variant I42F; experiment: biochemical; conditions: for Ki: 100 nM enzyme
Procedure: as §1, §3

AtPDF variant G41Q [13] = test system: T8, AtPDF variant G41Q; experiment: Differential scanning calorimetry (DSC), thermal stability; assay type: binding, Arabidopsis thaliana
T8 construct: Expression and purification of mature Arabidopsis thaliana PDF1B and all variants (i.e., AtPDF); made in house
Procedure: as §2

[14] = test system: almost all of the AtPDF variants; experiment: as above; assay type: binding, Arabidopsis thaliana
Procedure: as §2

[15] = test system: CSCC[C@H](NC=O)C(=O)N[C@@H](C)C(=O)N[C@@H](CO)C(=O)O; experiment: purified protein, by the assay type; conditions: other: G41Q, substrate Fo-Met-Ala-Ser, 100 nM enzyme, 750 µM NiCl2, 37°C
Procedure: The kinetics parameters were derived from iterative non-linear least square calculations using the Michaelis-Menten equation based on the experimental data (Sigma-Plot; Kinetics module). […] The data were then calculated according to the method of Henderson, which can be used to determine the dissociation constant of the tight-binding competitive enzyme inhibitor [28],[49],[72] by varying both the inhibitor and substrate concentrations. To determine K I, k 5, and k 6, the reaction was initiated by the addition of enzyme as previously described [29],[49]. […] From the set of values obtained at various concentrations of I, k5 and k6 could be derived using kobs = k6 + k5[I]/(KI + [I]).

[16] = substrate: CSCC[C@H](NC=O)C(=O)N[C@@H](C)C(=O)N[C@@H](CO)C(=O)O; experiment: purified protein, by the assay type; conditions: other: WT, substrate Fo-Met-Ala-Ser, 100 nM enzyme, 750 µM NiCl2, 37°C
Procedure: Assay of PDF activity was coupled to formate dehydrogenase, where the absorbance of NADH at 340 nm was measured at 37°C as previously described [71]. […] The kinetics parameters were derived from iterative non-linear least square calculations using the Michaelis-Menten equation based on the experimental data (Sigma-Plot; Kinetics module). […] The data were then calculated according to the method of Henderson, which can be used to determine the dissociation constant of the tight-binding competitive enzyme inhibitor [28],[49],[72] by varying both the inhibitor and substrate concentrations. To determine K I, k 5, and k 6, the reaction was initiated by the addition of enzyme as previously described [29],[49]. […] From the set of values obtained at various concentrations of I, k5 and k6 could be derived using kobs = k6 + k5[I]/(KI + [I]).

[17] = value is k5 multiplied by 10^3, no preincubation
[18] = value is k6 multiplied by 10^4, no preincubation
[19] = KI*app, 2 mM substrate, actinonin preincubated 10 min at 37°C
[20] = KI, no preincubation, started by adding enzyme

Sequence of EcPDF (P0A6K3 whole entry): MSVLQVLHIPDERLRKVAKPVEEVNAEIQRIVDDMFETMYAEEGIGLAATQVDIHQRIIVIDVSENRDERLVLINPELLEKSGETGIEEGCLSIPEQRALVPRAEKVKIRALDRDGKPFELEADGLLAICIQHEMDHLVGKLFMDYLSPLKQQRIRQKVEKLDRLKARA

In the case of `CCCCC[C@H](CC(=O)NO)C(=O)N[C@H](C(=O)N1CCC[C@H]1CO)C(C)C` [actinonin], the “k4, dissociation of the primary enzyme-actinonin complex” value (EcPDF; assumes k3 = 10^9 M−1.s^−1) is reported as 112 ± 10 s⁻¹, the “k 5 (s^−1) ×10^3” value (EcPDF; [17]) is reported as 170±20 s^−1 ×10^3 and the “k 6 (s^−1) ×10^4” value (EcPDF; [18]) is reported as 19±2 s^−1 ×10^4. For the same molecule, the ΔΔGbinding [1] was 2.2 to 2.4 kcal/mol, the “increase in the T m by actinonin” value (AtPDF variant G41M [2]) was 12 °C and the Kd (AtPDF [3]) was 0.9 nM. The Ki (AtPDF [3]; K I*, enzyme 100 nM, actinonin preincubated with enzyme 10 min at 37°C, assay initiated by substrate) was 0.9 ± 0.5 nM, the Ki (AtPDF [3]; KI*app, Wild-type, 100 nM enzyme, 2 mM substrate, actinonin preincubated 10 min at 37°C) was 2.3 ± 0.3 nM and the “binding free energy difference between the two complexes” value (AtPDF [3]; WT, RT ln(KI*/KI), 37°C) was 3.1 kcal/mol. For the same molecule, the “k6 (s^-1) x 10^4” value (AtPDF [3]; Wild-type, Table S3 (with KI*app), value is k6 multiplied by 10^4) was 10 ± 1 s^-1 x 10^4, the “k4, dissociation of the primary enzyme-actinonin complex” value (AtPDF [3]; assumes k3 = 10^9 M−1.s^−1 (diffusion-limited)) was 140 s⁻¹ and 140 ± 10 s⁻¹ and the “k 5 (s^−1) ×10^3” value (AtPDF [3]; [17]) was 63±9 s^−1 ×10^3 and 63 ± 6 s^−1 ×10^3. For the same molecule, the “k 6 (s^−1) ×10^4” value (AtPDF [3]; [18]) was 4±1 s^−1 ×10^4, the “KI*app” value (AtPDF variant G41M [4]) was “nM” and the Kd (AtPDF [5]) was 4.5 nM. It also gave a Kd (AtPDF variant I42W [6]) of 3.7 nM, a Kd (AtPDF variant G41M [7]) of 32 nM and a Kd (AtPDF variant I42F [8]) of 3.6 nM. For the same molecule, the Kd (AtPDF variant I42A) was 3 nM, the Kd (AtPDF variant G41Q [9]) was 48 nM and the “KI*app” value (AtPDF variant G41Q [9]; G41Q, nm = not measurable) was “nM”. For the same molecule, the “T m of AtPDF upon binding of the inhibitor” value (AtPDF [10]) was 81 °C, the Kd (AtPDF variant I42N) was 6.3 nM and the “k5 (s^-1) x 10^3” value (AtPDF variant I42N; I42N, value is k5 multiplied by 10^3) was 52 ± 5 s^-1 x 10^3. The “k6 (s^-1) x 10^4” value (AtPDF variant I42N; I42N, value is k6 multiplied by 10^4) was 101 ± 10 s^-1 x 10^4, the Ki (AtPDF variant I42N; KI*app, I42N, 2 mM substrate, actinonin preincubated 10 min at 37°C) was 6.3 ± 0.4 nM and the Ki (AtPDF variant I42N; KI, I42N, no preincubation, started by adding enzyme) was 39 ± 4 nM. The Ki (AtPDF variant I130A; [19]) was 1.5 ± 0.4 nM, the Ki (AtPDF variant I130A; [20]) was 36 ± 5 nM and the “k5 (s^-1) x 10^3” value (AtPDF variant I130A; value is k5 multiplied by 10^3) was 49 ± 5 s^-1 x 10^3. For the same molecule, the “k6 (s^-1) x 10^4” value (AtPDF variant I130A; value is k6 multiplied by 10^4) was 21 ± 2 s^-1 x 10^4, the Ki (AtPDF variant I42W [11]; [19]) was 2.8 ± 0.4 nM and the Ki (AtPDF variant I42W [11]; [20]) was 97 ± 6 nM. For the same molecule, the “k5 (s^-1) x 10^3” value (AtPDF variant I42W [11]; value is k5 multiplied by 10^3) was 52 ± 5 s^-1 x 10^3, the “k6 (s^-1) x 10^4” value (AtPDF variant I42W [11]; value is k6 multiplied by 10^4) was 16 ± 2 s^-1 x 10^4 and the Kd (AtPDF variant I42F [12]) was 2.8 nM. For the same molecule, the “k5 (s^-1) x 10^3” value (AtPDF variant I42F [12]; I42F, value is k5 multiplied by 10^3) was 89 ± 9 s^-1 x 10^3, the “k6 (s^-1) x 10^4” value (AtPDF variant I42F [12]; I42F, value is k6 multiplied by 10^4) was 62 ± 6 s^-1 x 10^4 and the Ki (AtPDF variant I42F [12]; KI*app, I42F, 2 mM substrate, actinonin preincubated 10 min at 37°C) was 2.8 ± 0.2 nM. The Ki (AtPDF variant I42F [12]; KI, I42F, no preincubation, started by adding enzyme) was 43 ± 5 nM, the “increase in the T m by actinonin” value (AtPDF variant G41Q [13]) was 12 °C and the “increase of T m by actinonin” value [14] was “more than 20 °C”.

Molecule “AtPDF variant G41Q (Arabidopsis thaliana; G121Q)” has a Km [15] of 6.7 ± 1.7 mM, a kcat [15] of 0.14 ± 0.02 s⁻¹ and a kcat/Km [15] of 20 ± 10 M⁻¹ s⁻¹.

B1: AtPDF (Arabidopsis thaliana) (protein)
chain: AEVKRVSRKDDKVASATDVQFETPLKIVEYPDPILRAKNKRIDIFDENLKNLVDAMFDVMYKTDGIGLSAPQVGLNVQLMVFNPAGEPGEGKEIVLVNPKIKKYSDKLVPFDEGCLSFPGIYAEVVRPQSVKIDARDITGERFSISLSRLPARIFQHEYDHLEGVLFFDRMTDQVLDSIREELEALEKKYEEKTGLPSPERVEARQKRKAGVGFGKR
B1 was tested, and the Km [16] was 6.5 ± 0.7 mM, the kcat [16] was 37 ± 2 s⁻¹ and the kcat/Km [16] was 5700 ± 600 M⁻¹ s⁻¹.

Source: publication PMC3101196, “Trapping Conformational States Along Ligand-Binding Dynamics of Peptide Deformylase: The Impact of Induced Fit on Enzyme Catalysis” (PLoS Biology, 2011)
